In PubChem BioAssay AID1963852 (Molecular Pharmacology Branch, DTP, NCI, 2024):
pIC50: −log10 of the molar value.

Tested on: 282377-053-R-J1-PDC complex spheroid viability
Experiment: Anticancer human tumor 282377-053-R-J1-PDC patient-derived colon adenocarcinoma cell line growth inhibition [POLQ]
Details: for pIC50: curve of first compound; for viability, T/C: stronger effect = lower value; active = viability on the fitted dose curve at most 10% of control; inactive = the rest
In short: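 PDC + HUVEC + MSC complex spheroids; POLQ inhibitors ± partner drugs; top conc. at/near clinical Cmax, else 10 microM (SN-38 1 microM), half-log dilutions; 37 degrees C, 5% CO2.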

[1] = second compound 0.0316 µM, first compound 0.0316 µM
[2] = second compound 0.0316 µM, first compound 0.1 µM
[3] = second compound 0.0316 µM, first compound 0.316 µM
[4] = second compound 0.0316 µM, first compound 1 µM
[5] = second compound 0.0316 µM, first compound 3.16 µM
[6] = second compound 0.0316 µM, first compound 10 µM
[7] = second compound 0.1 µM, first compound 0.0316 µM
[8] = second compound 0.1 µM, first compound 0.1 µM
[9] = second compound 0.1 µM, first compound 0.316 µM
[10] = second compound 0.1 µM, first compound 1 µM
[11] = second compound 0.1 µM, first compound 3.16 µM
[12] = second compound 0.1 µM, first compound 10 µM
[13] = second compound 0.316 µM, first compound 0.0316 µM
[14] = second compound 0.316 µM, first compound 0.1 µM
[15] = second compound 0.316 µM, first compound 0.316 µM
[16] = second compound 0.316 µM, first compound 1 µM
[17] = second compound 0.316 µM, first compound 3.16 µM
[18] = second compound 0.316 µM, first compound 10 µM
[19] = second compound 1 µM, first compound 0.0316 µM
[20] = second compound 1 µM, first compound 0.1 µM
[21] = second compound 1 µM, first compound 0.316 µM
[22] = second compound 1 µM, first compound 1 µM
[23] = second compound 1 µM, first compound 3.16 µM
[24] = second compound 1 µM, first compound 10 µM
[25] = second compound 3.16 µM, first compound 0.0316 µM
[26] = second compound 3.16 µM, first compound 0.1 µM
[27] = second compound 3.16 µM, first compound 0.316 µM
[28] = second compound 3.16 µM, first compound 1 µM
[29] = second compound 3.16 µM, first compound 3.16 µM
[30] = second compound 3.16 µM, first compound 10 µM
[31] = second compound 10 µM, first compound 0.0316 µM
[32] = second compound 10 µM, first compound 0.1 µM
[33] = second compound 10 µM, first compound 0.316 µM
[34] = second compound 10 µM, first compound 1 µM
[35] = second compound 10 µM, first compound 3.16 µM
[36] = second compound 10 µM, first compound 10 µM
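Also: spheroids exposed to compounds for seven days.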
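For viability, T/C in this document: 100% = DMSO vehicle control viability.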

O=C(Nc1ccc(O)c(NS(=O)(=O)c2ccc(F)cc2)c1)c1ccc(-c2ccccc2)cc1 + Cc1cccc(N(C)C(=O)C2C(O)CCN2c2nc(C)cc(C(F)(F)F)c2C#N)c1
inactive: viability, T/C [1] 122% | viability, T/C [2] 119% | viability, T/C [3] 98.4% | viability, T/C [4] 102% | viability, T/C [5] 107% | viability, T/C [6] 116% | viability, T/C [7] 106% | viability, T/C [8] 117% | viability, T/C [9] 99.5% | viability, T/C [10] 108% | viability, T/C [11] 124% | viability, T/C [12] 118% | viability, T/C [13] 104% | viability, T/C [14] 107% | viability, T/C [15] 106% | viability, T/C [16] 103% | viability, T/C [17] 116% | viability, T/C [18] 120% | viability, T/C [19] 106% | viability, T/C [20] 110% | viability, T/C [21] 99.8% | viability, T/C [22] 109% | viability, T/C [23] 117% | viability, T/C [24] 119% | viability, T/C [25] 112% | viability, T/C [26] 118% | viability, T/C [27] 104% | viability, T/C [28] 108% | viability, T/C [29] 126% | viability, T/C [30] 115% | viability, T/C [31] 106% | viability, T/C [32] 105% | viability, T/C [33] 99.7% | viability, T/C [34] 97% | viability, T/C [35] 106% | viability, T/C [36] 115%
< 5.00: pIC50 (second compound 0.0316 µM) | pIC50 (second compound 0.1 µM) | pIC50 (second compound 0.316 µM) | pIC50 (second compound 1 µM) | pIC50 (second compound 3.16 µM) | pIC50 (second compound 10 µM)

CCc1cc2c(N3CCc4c(cc(Cn5ccnc5)cc4-c4cn(C)nc4C(F)(F)F)C3=O)ccnc2c(OC)n1 + Nc1ccc(C#CCN(C(=O)Cc2ncc(C(F)(F)F)cc2C(F)(F)F)c2ccc(F)cc2)nn1
< 5.00: pIC50 (second compound 0.0316 µM) | pIC50 (second compound 0.1 µM) | pIC50 (second compound 0.316 µM) | pIC50 (second compound 1 µM) | pIC50 (second compound 3.16 µM) | pIC50 (second compound 10 µM)
inactive: viability, T/C [1] 92.7% | viability, T/C [2] 98.8% | viability, T/C [3] 102% | viability, T/C [4] 106% | viability, T/C [5] 94.1% | viability, T/C [6] 111% | viability, T/C [7] 75.9% | viability, T/C [8] 73.9% | viability, T/C [9] 72.2% | viability, T/C [10] 77.1% | viability, T/C [11] 107% | viability, T/C [12] 115% | viability, T/C [13] 90.3% | viability, T/C [14] 78.8% | viability, T/C [15] 86.3% | viability, T/C [16] 90.1% | viability, T/C [17] 111% | viability, T/C [18] 87.4% | viability, T/C [19] 104% | viability, T/C [20] 75.7% | viability, T/C [21] 84.1% | viability, T/C [22] 90.5% | viability, T/C [23] 102% | viability, T/C [24] 108% | viability, T/C [25] 103% | viability, T/C [26] 92.7% | viability, T/C [27] 88.8% | viability, T/C [28] 109% | viability, T/C [29] 96.7% | viability, T/C [30] 123% | viability, T/C [31] 95.5% | viability, T/C [32] 106% | viability, T/C [33] 113% | viability, T/C [34] 108% | viability, T/C [35] 138% | viability, T/C [36] 127%
